Source: US20250114460A1, “NOVEL PLK1 DEGRADATION INDUCING COMPOUND” (UPPTHERA, INC., priority 2021, published 2025)

What follows are molecules tested against T1, PLK1 (Homo sapiens, UniProt P53350) (assay: Luciferase assay for PLK1 in HeLa LgBit (Plk1-HiBit KI) cell line). Settings: 300 nM compound, luminescence after 9 hours.
T1 construct: endogenous in cells; host or cells: HeLa LgBit (Plk1-HiBit KI): HeLa stably expressing LgBit, with a CRISPR/Cas9 knock-in of HiBit at the endogenous PLK1 locus
Format: cell-based
Method in brief: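 HeLa cells stably expressing LgBit, with HiBit knocked in at the C-terminus of endogenous Plk1, released from a 24 h 2 mM thymidine block and grown 18 h. Endurazine added, then compound at 300 nM; luminescence tracked in real time, expressed as ratio to DMSO.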

T1 sequence (P53350 whole entry): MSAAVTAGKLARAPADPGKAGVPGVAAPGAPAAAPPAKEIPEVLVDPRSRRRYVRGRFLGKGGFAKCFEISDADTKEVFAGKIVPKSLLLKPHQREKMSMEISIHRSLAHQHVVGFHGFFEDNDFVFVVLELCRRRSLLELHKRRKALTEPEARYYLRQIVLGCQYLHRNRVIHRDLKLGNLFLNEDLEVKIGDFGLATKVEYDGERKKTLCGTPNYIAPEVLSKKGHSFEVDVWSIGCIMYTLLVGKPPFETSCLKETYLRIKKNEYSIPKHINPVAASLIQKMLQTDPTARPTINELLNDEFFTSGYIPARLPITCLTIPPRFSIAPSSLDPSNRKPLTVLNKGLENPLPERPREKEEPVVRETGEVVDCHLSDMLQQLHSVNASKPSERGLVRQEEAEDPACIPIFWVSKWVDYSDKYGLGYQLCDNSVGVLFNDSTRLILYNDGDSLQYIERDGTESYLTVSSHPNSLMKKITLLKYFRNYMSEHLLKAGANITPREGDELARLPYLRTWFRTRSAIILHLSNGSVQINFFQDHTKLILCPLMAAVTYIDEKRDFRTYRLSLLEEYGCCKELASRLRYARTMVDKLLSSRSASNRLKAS

Row | Activity: ratio of the luminescense value of each Exemplary Compound treatment group to DMSO treatment group | SMILES
1 | ++ (++<0.6) | COc1cc(C(=O)NN2CCN(C3CCN(c4ccc5c(c4)C(=O)N(C4CCC(=O)NC4=O)C5=O)CC3(F)F)CC2)ccc1Nc1ncc2c(n1)N(C(C)C)CC(F)(F)C(=O)N2C (stereo not drawn) [Compound 168, 4-((7,7-difluoro-9-isopropyl-5-methyl-6-oxo-6,7,8,9-tetrahydro-5H-pyrimido[4,5-b][1,4]diazepin-2-yl)amino)-N-(4-(1-(2-(2,6-dioxopiperidin-3-yl)-1,3-dioxoisoindolin-5-yl)-3,3-difluoropiperidin-4-yl)piperazin-1-yl)-3-methoxybenzamide]
2 | + (+<0.7) | COc1cc(C(=O)NC2CCN(C(=O)CC[C@@H]3CN(Cc4cccc5c4C(=O)N(C4CCC(=O)NC4=O)C5=O)CCO3)CC2)ccc1Nc1ncc2c(n1)N(C1CCCC1)CC(F)(F)C(=O)N2C (stereo partly drawn) [Compound 173, 4-((9-cyclopentyl-7,7-difluoro-5-methyl-6-oxo-6,7,8,9-tetrahydro-5H-pyrimido[4,5-b][1,4]diazepin-2-yl)amino)-N-(1-(3-((2R)-4-((2-(2,6-dioxopiperidin-3-yl)-1,3-dioxoisoindolin-4-yl)methyl)morpholin-2-yl)propanoyl)piperidin-4-yl)-3-methoxybenzamide]
3 | ++ (++<0.6) | COc1cc(C(=O)NC2CCN(C(=O)CC[C@H]3CN(Cc4cccc5c4C(=O)N(C4CCC(=O)NC4=O)C5=O)CCO3)CC2)ccc1Nc1ncc2c(n1)N(C1CCCC1)CC(F)(F)C(=O)N2C (stereo partly drawn) [Compound 174, 4-((9-cyclopentyl-7,7-difluoro-5-methyl-6-oxo-6,7,8,9-tetrahydro-5H-pyrimido[4,5-b][1,4]diazepin-2-yl)amino)-N-(1-(3-((2S)-4-((2-(2,6-dioxopiperidin-3-yl)-1,3-dioxoisoindolin-4-yl)methyl)morpholin-2-yl)propanoyl)piperidin-4-yl)-3-methoxybenzamide]
4 | ++ (++<0.6) | COc1cc(C(=O)NC2CCN(C(=O)CCC#Cc3cccc4c3C(=O)N(C3CCC(=O)NC3=O)C4=O)CC2)ccc1Nc1ncc2c(n1)N(C1CCCC1)CC(F)(F)C(=O)N2C (stereo not drawn) [Compound 179, 4-((9-cyclopentyl-7,7-difluoro-5-methyl-6-oxo-6,7,8,9-tetrahydro-5H-pyrimido[4,5-b][1,4]diazepin-2-yl)amino)-N-(1-(5-(2-(2,6-dioxopiperidin-3-yl)-1,3-dioxoisoindolin-4-yl)pent-4-ynoyl)piperidin-4-yl)-3-methoxybenzamide]
5 | ++ (++<0.6) | COc1cc(C(=O)NC2CCN(C(=O)CCCC#Cc3cccc4c3C(=O)N(C3CCC(=O)NC3=O)C4=O)CC2)ccc1Nc1ncc2c(n1)N(C1CCCC1)CC(F)(F)C(=O)N2C (stereo not drawn) [Compound 180, 4-((9-cyclopentyl-7,7-difluoro-5-methyl-6-oxo-6,7,8,9-tetrahydro-5H-pyrimido[4,5-b][1,4]diazepin-2-yl)amino)-N-(1-(6-(2-(2,6-dioxopiperidin-3-yl)-1,3-dioxoisoindolin-4-yl)hex-5-ynoyl)piperidin-4-yl)-3-methoxybenzamide]
6 | + (+<0.7) | COc1cc(C(=O)N2CCN(CCCNc3cccc4c3C(=O)N(C3CCC(=O)NC3=O)C4=O)CC2)c(F)cc1Nc1ncc2c(n1)N(C1CCCC1)CC(F)(F)C(=O)N2C (stereo not drawn) [Compound 183, 4-((3-(4-(4-((9-cyclopentyl-7,7-difluoro-5-methyl-6-oxo-6,7,8,9-tetrahydro-5H-pyrimido[4,5-b][1,4]diazepin-2-yl)amino)-2-fluoro-5-methoxybenzoyl)piperazin-1-yl)propyl)amino)-2-(2,6-dioxopiperidin-3-yl)isoindoline-1,3-dione]
